We go through 41 molecules from patent publication US8088772B2, “Sulfonamides and their use as a medicament” (The Genetics Company, Inc., priority 2006, dated 2012).

One assay has as its system βCatenin-BCL9. Put plainly: ELISA based protein-protein interaction assay. Type of assay: binding. Particulars: inhibition class of the βCatenin-BCL9 interaction. The procedure:
In vitro ELISA-based Protein-protein Interaction Assay
Protein Production in Bacteria
cDNAs including the binding domains of Lgs and βCatenin were fused downstream of glutathione-S-transferase (GST) cDNA in pGEX-4T inducible bacterial expression vector (Pharmacia). Fusion proteins were produced in BL21 bacteria (e.g. Stratagene) following manufacturer's recommendation.
To isolate the produced fusions protein bacteria were lysed in sonication buffer (10 mM Tris HCl pH 8.0, 150 mM NaCl, 1 mM EDTA, 1.5% sarkosyl, 2% Triton-X-100, 1 mM DTT and protease inhibitors), followed by short sonication on ice (e.g. 3 times 20 seconds at middle power) and centrifugation. Cleared supernatants were incubated under gentle rotation with glutathione beads (Amersham Pharmacia) for 2 hrs at 4° C. Finally, beads were washed several time in washing buffer (20 mM Tris pH 8.0, 200 mM NaCl, 1 mM EDTA, 1 mM DTT, 1 mM MgCl2, 0.5% NP40), and stored in storage buffer (20 mM Tris pH 8.0, 200 mM NaCl, 1 mM EDTA, 1 mM DTT, 1 mM MgCl2, 10% glycerol, 0.5% NP40, and proteinase inhibitors). The quality of the preparations was checked by SDS-gel electrophoresis by standard methods well known by persons skilled in the art. […]
In general terms: ELISA stands for enzyme-linked immunosorbent assay.

In another assay the test system is Wnt pathway. Nature of the assay: Cell Assay (CA): inhibition of Wnt activity in cancer cells, Tcf reporter gene. Type of assay: cell-based. Conditions: inhibition class in the Cell Assay. The text has this: Inhibition of Wnt Activity in Cancer Cells
The effect of β-catenin/BCL9 inhibitors identified in the ELISA-based protein-protein interaction assay on the Wnt pathway can be evaluated in a cell culture system using a reporter gene responsive to the Tcf/Lef family of transcription factors or by quantitative analysis of Wnt target genes in appropriate cell lines.
A reporter gene is a construct which comprises a readily detectable or assayable gene such β-galactosidase, green fluorescent protein, chloramphenicol acetyltransferase or luciferase, linked in cis to a transcription factor response element and a minimal promoter. Depending on the expression vectors used, this protocol can be applied, e.g. for mammalian as well as for Drosophila cell lines. For instance, colon cancer cells with constitutively active Wnt pathway like DLD-1 or SW620 (ATCC) are a well suitable system. Hereby, a Tcf-4 driven luciferase reporter plasmid (i.e. TOP-FLASH, Upstate biotechnology, New York, USA) is transiently or stably transfected into cells known in the art. Any means for introducing genetic material into cells can be used, including but not limited to infection, electroporation or transfection. For instance, to introduce DNA into DLD-1 cells, a lipofection agent like the Lipofectamine transfection reagent (Life Technologies, Inc.) can be used. By transient transfection protocols, a second reporter gene, e.g. the renilla luciferase reporter plasmid pRL-SV40 (Promega Corporation, Madison USA), needs to be co-transfected to normalize for transfection efficiency. Drugs are added to the media 24 h after trans-fection (transient transfection) or 24 h after seeding of the cells (stably transfected cells). Cell extracts are prepared 24 to 48 h later and assayed for reporter gene activity as described by the manufacturer (eg. for luciferase activity: Promega Corporation). Compounds reducing reporter gene activity more than 50% compared to solvent alone treated cells are considered as hits. In parallel, toxicity can be assessed for instance by the yellow tetrazolium salt cell proliferation assay (MTT) assay.
(In a reporter assay the amount or activity of a reporter protein is the signal.)

Each structure is given as a SMILES string.

On to `O=[N+]([O-])c1ccc(N/N=C/c2ccc(O)c(O)c2)c(S(=O)(=O)Nc2ccccc2Cl)c1` [TGC0008709], for which, in the assay with βCatenin-BCL9, the ELISA is 3.5. In the assay with Wnt pathway, the CA is given as 4 (61-80% inhibition).
The corresponding values for `O=[N+]([O-])c1ccc(N/N=C/c2cc(Cl)cc(Cl)c2O)c(S(=O)(=O)Nc2ccccc2Cl)c1` [TGC0010527] are 3 (41-60% inhibition) and 4.5.
The corresponding values for `O=[N+]([O-])c1ccc(N/N=C/c2cc(Cl)cc(Cl)c2)c(S(=O)(=O)Nc2ccccc2Cl)c1` [TGC0010536] are 2 (21-40% inhibition) and 5 (81-100% inhibition).
On to `O=[N+]([O-])c1ccc(N/N=C/c2cccc(Oc3ccccc3)c2)c(S(=O)(=O)Nc2ccccc2Cl)c1` [TGC0010583], for which the ELISA with βCatenin-BCL9 is on record as 2 (21-40% inhibition). In addition, in the assay with Wnt pathway, the CA is reported as 4 (61-80% inhibition).
For the molecule `Cc1ncc(CO)c(/C=N/Nc2ccc([N+](=O)[O-])cc2S(=O)(=O)Nc2ccccc2Cl)c1O` [TGC0010626], the ELISA in the assay on βCatenin-BCL9 was 3 (41-60% inhibition). The same molecule registered a CA in the assay on Wnt pathway of 4.5.
For the molecule `O=[N+]([O-])c1ccc(NN=C(Cc2ccccc2)Cc2ccccc2)c(S(=O)(=O)Nc2ccccc2Cl)c1` [TGC0010661], the ELISA in the assay on βCatenin-BCL9 is 2 (21-40% inhibition). Also, in the assay with Wnt pathway, the CA is recorded as 3 (41-60% inhibition).
With `O=C1Nc2ccccc2/C1=N/Nc1ccc([N+](=O)[O-])cc1S(=O)(=O)Nc1ccccc1Cl` [TGC0010663], in the assay on βCatenin-BCL9, the ELISA was determined as 2.5.
Turning to `CCN1C(=O)/C(=N\Nc2ccc([N+](=O)[O-])cc2S(=O)(=O)Nc2ccccc2Cl)c2ccccc21` [TGC0010665], in the assay with βCatenin-BCL9, the ELISA is recorded as 2 (21-40% inhibition). For the same molecule, the CA in the assay on Wnt pathway was 4 (61-80% inhibition).
For the molecule `Cc1cc(/C=N\Nc2ccc([N+](=O)[O-])cc2S(=O)(=O)Nc2ccccc2Cl)c(C)n1-c1ccc(Cl)cc1` [TGC0010673], the ELISA in the assay with βCatenin-BCL9 is recorded as 1 (0-20% inhibition). This molecule returned a CA in the assay on Wnt pathway of 4.5.
In the assay on βCatenin-BCL9, `Cc1nn(-c2ccc(F)cc2)c(Cl)c1/C=N\Nc1ccc([N+](=O)[O-])cc1S(=O)(=O)Nc1ccccc1Cl` [TGC0010674] had an ELISA of 2.5.
Take `O=S(=O)(Nc1ccccc1Cl)c1ccccc1Cl` [TGC0011155]: the ELISA in the assay with βCatenin-BCL9 is recorded as 1 (0-20% inhibition).
Still for that read-out and setting: as for `O=S(=O)(Nc1ccccc1Cl)c1ccccc1Br` [TGC0011157], the figure is 1 (0-20% inhibition); as for `O=S(=O)(Nc1ccccc1Cl)c1cccc(Br)c1` [TGC0011158], 1 (0-20% inhibition).
As for `CC(=O)Nc1ccc(/C=N/Nc2ccc([N+](=O)[O-])cc2S(=O)(=O)Nc2ccccc2Cl)cc1` [TGC0011358], the ELISA in the assay with βCatenin-BCL9 was 1.5. In the assay with Wnt pathway, the CA is given as 3 (41-60% inhibition).
`O=[N+]([O-])c1ccc(N/N=C/c2ccc(O)cc2)c(S(=O)(=O)Nc2ccccc2Cl)c1` [TGC0011359]: the ELISA with βCatenin-BCL9 is 3 (41-60% inhibition). Moreover, the CA in the assay on Wnt pathway was 3 (41-60% inhibition).
`COc1cc(Cl)cc(/C=N/Nc2ccc([N+](=O)[O-])cc2S(=O)(=O)Nc2ccccc2Cl)c1OCC(=O)O` [TGC0011360]: in the assay with βCatenin-BCL9, the ELISA is 4.5.
`CC/C=N/Nc1ccc([N+](=O)[O-])cc1S(=O)(=O)Nc1ccccc1Cl` [TGC0011361]: the ELISA with βCatenin-BCL9 was 1 (0-20% inhibition). In the assay with Wnt pathway, this molecule came in with a CA of 3.5.
On to `O=[N+]([O-])c1ccc(N/N=C/c2ccccn2)c(S(=O)(=O)Nc2ccccc2Cl)c1` [TGC0011401], for which, in the assay on βCatenin-BCL9, the ELISA stood at 1.5. For the same molecule, in the assay with Wnt pathway, the CA is recorded as 4 (61-80% inhibition).
As to `O=[N+]([O-])c1ccc(N/N=C/c2cccnc2)c(S(=O)(=O)Nc2ccccc2Cl)c1` [TGC0011402], in the assay with βCatenin-BCL9, the ELISA is listed as 2 (21-40% inhibition). Besides, in the assay on Wnt pathway, the CA was 4 (61-80% inhibition).
The corresponding values for `O=[N+]([O-])c1ccc(N/N=C/c2ccncc2)c(S(=O)(=O)Nc2ccccc2Cl)c1` [TGC0011403] are 2 (21-40% inhibition) and 4 (61-80% inhibition).
With `O=[N+]([O-])c1ccc(N/N=C/c2ccc(CN3CCOCC3)cc2)c(S(=O)(=O)Nc2ccccc2Cl)c1` [TGC0011404], in the assay on βCatenin-BCL9, the ELISA is 3 (41-60% inhibition). Moreover, the CA in the assay on Wnt pathway is on record as 4 (61-80% inhibition).
In the assay on Wnt pathway, `O=[N+]([O-])c1ccc(N/N=C/c2ccnc3ccccc23)c(S(=O)(=O)Nc2ccccc2Cl)c1` [TGC0011405] came in with a CA of 4.5.
For `O=[N+]([O-])c1ccc(N/N=C/c2ccc(Oc3cccnc3)cc2)c(S(=O)(=O)Nc2ccccc2Cl)c1` [TGC0011406], the CA in the assay on Wnt pathway is reported as 4 (61-80% inhibition).
Regarding `O=[N+]([O-])c1ccc(N/N=C/c2ccccc2-c2cccnc2)c(S(=O)(=O)Nc2ccccc2Cl)c1` [TGC0011409], the ELISA in the assay with βCatenin-BCL9 worked out at 3.5. This molecule had a CA in the assay on Wnt pathway of 4.5.
`O=[N+]([O-])c1ccc(N/N=C/c2cccc(CN3CCOCC3)c2)c(S(=O)(=O)Nc2ccccc2Cl)c1` [TGC0011419] returned an ELISA in the assay on βCatenin-BCL9 of 1.5. In addition, the CA with Wnt pathway is 3 (41-60% inhibition).
The corresponding values for `O=[N+]([O-])c1ccc(N/N=C/c2cccc(OCCN3CCOCC3)c2)c(S(=O)(=O)Nc2ccccc2Cl)c1` [TGC0011420] are 1 (0-20% inhibition) and 2 (21-40% inhibition).
The corresponding values for `O=[N+]([O-])c1ccc(N/N=C/c2ccc(Br)cc2)c(S(=O)(=O)Nc2ccccc2Cl)c1` [TGC0011421] are 2.5 and 4 (61-80% inhibition).
`CN1CCN(Cc2ccc(/C=N/Nc3ccc([N+](=O)[O-])cc3S(=O)(=O)Nc3ccccc3Cl)cc2)CC1` [TGC0011438]: the ELISA in the assay on βCatenin-BCL9 is 1 (0-20% inhibition). For the same molecule, the CA with Wnt pathway was 3 (41-60% inhibition).
The corresponding values for `N#Cc1ccc(Cl)c(NS(=O)(=O)c2ccccc2Br)c1` [TGC0011492] are 1 (0-20% inhibition) and 1 (0-20% inhibition).
On to `O=S(=O)(Nc1ccccc1Cl)c1ccc(Cl)c(NS(=O)(=O)c2ccccc2Br)c1` [TGC0011493], for which, in the assay on βCatenin-BCL9, the ELISA is on record as 1 (0-20% inhibition). Moreover, in the assay on Wnt pathway, the CA was 1 (0-20% inhibition).
As to `COC(=O)c1ccc(Cl)c(NS(=O)(=O)c2ccccc2Br)c1` [TGC0011494], the ELISA in the assay with βCatenin-BCL9 was 1 (0-20% inhibition). The CA in the assay with Wnt pathway is 1 (0-20% inhibition).
`O=S(=O)(Nc1cc(S(=O)(=O)N2CCOCC2)ccc1Cl)c1ccccc1Br` [TGC0011498]: the ELISA in the assay on βCatenin-BCL9 is listed as 1 (0-20% inhibition). In addition, the CA in the assay with Wnt pathway is on record as 1 (0-20% inhibition).
Take `COC(=O)c1ccc(NS(=O)(=O)c2ccccc2Br)c(Cl)c1` [TGC0011499]: in the assay on βCatenin-BCL9, the ELISA was 1 (0-20% inhibition). In addition, in the assay on Wnt pathway, the CA is 1 (0-20% inhibition).
With `CC(=O)Nc1ccc(Cl)c(NS(=O)(=O)c2ccccc2Br)c1` [TGC0011502], the ELISA in the assay on βCatenin-BCL9 is 1 (0-20% inhibition). Besides, the CA with Wnt pathway was 1 (0-20% inhibition).
`C[n+]1cccc(/C=N/Nc2ccc([N+](=O)[O-])cc2S(=O)(=O)Nc2ccccc2Cl)c1.[I-]` [TGC0011513]: in the assay on Wnt pathway, the CA is reported as 1 (0-20% inhibition).
Take `C[n+]1ccccc1/C=N/Nc1ccc([N+](=O)[O-])cc1S(=O)(=O)Nc1ccccc1Cl.[I-]` [TGC0011514]: the ELISA in the assay on βCatenin-BCL9 was 1 (0-20% inhibition). Also, in the assay on Wnt pathway, the CA was 1 (0-20% inhibition).
On to `COC(=O)c1ccc(C(=O)NNc2ccc([N+](=O)[O-])cc2S(=O)(=O)Nc2ccccc2Cl)cc1` [TGC0011562], for which the ELISA with βCatenin-BCL9 is 2 (21-40% inhibition). For the same molecule, the CA in the assay on Wnt pathway was found to be 1.5.
The corresponding values for `COc1ccc(/C=N/Nc2ccc([N+](=O)[O-])cc2S(=O)(=O)Nc2ccccc2Cl)cc1OC` [TGC0011564] are 1 (0-20% inhibition) and 3.5.
In the assay with Wnt pathway, `Cn1cncc1C#Cc1ccccc1S(=O)(=O)Nc1ccccc1Cl` [TGC0012268] had a CA of 2.5.
`CC(C)C/C=N/Nc1ccc([N+](=O)[O-])cc1S(=O)(=O)Nc1ccccc1Cl` [TGC0012273]: the CA with Wnt pathway was 3.5.
As for `CCCCCC#C/C=N/Nc1ccc([N+](=O)[O-])cc1S(=O)(=O)Nc1ccccc1Cl` [TGC0012276], in the assay with Wnt pathway, the CA is given as 4.5.
